Assay results as given in patent US5792444A, “Labeled chemotactic peptides to image focal sites of infection or inflammation” (The General Hospital Corporation, priority 1993, dated 1998).
Where two headings read alike, the source gives them in different places. *1 amine or outer side, *2 acyl side, *3 side chain or, on linkers, in order; H or OH if unused. Where a SMILES comes first, the peptide text is derived from it. Side-chain parts run from the residue outwards. [ ]: non-standard residue; d: D form. The star is where a group is joined. Isobutyloxycarbonyl = CC(C)COC(=O)*; Met(O) = CS(=O)CC[C@H](N)C(=O)O; Cha = N[C@@H](CC1CCCCC1)C(=O)O; HYNIC = NNc1ccc(C(=O)*)cn1; Nle = CCCC[C@H](N)C(=O)O; CO = O=C([*:1])[*:2]; NHPh = c1ccc(N*)cc1; NHiPr = CC(C)N*

Key:
[1] = tested on: neutrophils / human umbilical vein endothelial cells; assay: cells; type: cell-based
Description: (§1) The unconjugated peptide iBoc-MLFK was evaluated in a neutrophil-endothelial cell adhesion assay. In this assay, neutrophils (5×10^5) labeled with 5-carboxyfluorescein diacetate were added into wells of a 48 well dish containing confluent human umbilical vein endothelial cells. The iBoc-MLFK peptide was added at a concentration of 10 μM 10 min prior to stimulation of neutrophils with 30 nM ForMLF. Percent adhesion was determined by washing off unattached neutrophils after an incubation period of 25 minutes. This peptide inhibited adhesion by 66% at this concentration. Subsequently, concentrations between 0.1-3.0 μM were examined. […] Inhibition of adhesion would reduce the infiltration of leukocytes, such as neutrophils, to a diseased site, thereby limiting the tissue damage associated with inflammation.
(§2) The procedure of Example 5 was repeated for additional CP's within the scope of the present invention. The results are shown in Table I. In the table, MPO is myeloperoxidase assay, a "-" sign means there was no effect at 30 μM, a "+" sign means there was a positive effect at 30 μM, and "N.T." means "Not

[2] = tested on: neutrophils / human umbilical vein endothelial cells; assay: Adhesion agonist (neutrophil-endothelial cell adhesion assay); type: cell-based; details: read-out: Adhesion Agonist EC50
Description: as §1, §2

neutrophils [3] = molecular target: T1, neutrophils (Homo sapiens, UniProt P21462); assay: Binding (Table I, Cell Biology Data); details: for Binding EC50: class symbol
T1 sequence (P21462 1-350): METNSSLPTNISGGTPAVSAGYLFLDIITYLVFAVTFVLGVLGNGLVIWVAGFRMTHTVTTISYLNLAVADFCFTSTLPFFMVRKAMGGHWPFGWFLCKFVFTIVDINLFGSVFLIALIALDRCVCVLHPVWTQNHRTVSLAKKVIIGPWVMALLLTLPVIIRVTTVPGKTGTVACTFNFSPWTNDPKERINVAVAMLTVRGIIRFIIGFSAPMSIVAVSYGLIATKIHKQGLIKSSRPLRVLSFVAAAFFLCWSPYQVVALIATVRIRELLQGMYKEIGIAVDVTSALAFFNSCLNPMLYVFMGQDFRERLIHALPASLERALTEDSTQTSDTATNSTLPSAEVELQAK
Description: Three non-DTPA derivatized peptides were included in the assay for comparison.

neutrophils [4] = molecular target: T1, neutrophils; assay: Free radicals agonist (neutrophil free radical chemiluminescence); type: cell-based; details: class symbol
neutrophils [5] = molecular target: T1, neutrophils; assay: Free radicals antagonist (inhibition of ForMLF stimulated free radical chemiluminescence); type: cell-based
[6] = read-out: Adhesion Antagonist IC50

CC(C)C[C@H](NC(=O)OCC1c2ccccc2-c2ccccc21)C(=O)O [Example 11, FMOC-Leucine]
IC50 ([1]; Homo sapiens, read-out: Adhesion Antagonist IC50): 20 µM

CSCC[C@H](NC(=O)c1ccc[nH]1)C(=O)N[C@@H](CC(C)C)C(=O)N[C@@H](Cc1ccccc1)C(=O)O [Example 25, Pyrrole-M--L--F]
IC50 [1, 6]: 6.2 µM

NNc1ccc(C(=O)O)cn1 [Example 26, Hynic]
EC50 ([2]; Homo sapiens): > 30 µM

CSCC[C@H](NC(=O)NC(C)C)C(=O)N[C@@H](CC(C)C)C(=O)N[C@@H](Cc1ccccc1)C(=O)N[C@@H](CCCCNC(=O)[C@H](CC(=O)O)NC(=O)c1ccc(NN)nc1)C(=O)O [Example 29, i-proplyurea-MLF--Lys--Asp--SHNH] ({NHiPr-CO}-MLFK([Asp-HYNIC])-OH; C-terminus assumed)
EC50 [2]: 0.73 µM
IC50 [1, 6]: > 30 µM

CSCC[C@H](NC(=O)NC(C)C)C(=O)N[C@@H](CC(C)C)C(=O)N[C@@H](Cc1ccccc1)C(=O)NCCCNC(=O)c1ccc(NN)nc1 [Example 30, N-i-propylurea-MLF-propanediamine-SHNH]
EC50 ([2]; class symbol): > 30 µM
IC50 [1, 6]: > 30 µM

CSCC[C@H](NC(=O)NC(C)C)C(=O)N[C@@H](CC(C)C)C(=O)N[C@@H](Cc1ccccc1)C(=O)NCCCNC(=O)[C@H](CC(=O)O)NC(=O)c1ccc(NN)nc1 [Example 31, i-propylurea-MLF-n-propyldiamine-Asp--SHNH]
EC50 [2]: 1.1 µM
IC50 [1, 6]: > 30 µM

CSCC[C@H](NC(=O)Nc1ccccc1)C(=O)N[C@@H](CC(C)C)C(=O)N[C@@H](CC1CCCCC1)C(=O)O [Example 34] ({NHPh-CO}-Met-Leu-[Cha]-OH)
EC50 ([2]; class symbol): < 30 µM

CSCC[C@H](NC(=O)OCC(C)C)C(=O)N[C@@H](CC(C)C)C(=O)N[C@@H](Cc1ccccc1)C(=O)N[C@@H](CCCCN)C(N)=O [Example 41, iBoc--MLFK] (Isobutyloxycarbonyl-MLFK-NH2)
IC50 [1]: ~14 µM

CCCC[C@H](NC(=O)OCC(C)C)C(=O)N[C@@H](CC(C)C)C(=O)N[C@@H](Cc1ccccc1)C(=O)N[C@@H](CCCCN)C(N)=O [Example 49, iBoc--Nle--LFK] (Isobutyloxycarbonyl-[Nle]LFK-NH2)
Binding EC50 (neutrophils [3]): ? --

CC(C)COC(=O)N[C@@H](CC[S+](C)[O-])C(=O)N[C@@H](CC(C)C)C(=O)N[C@@H](Cc1ccccc1)C(=O)N[C@@H](CCCCN)C(N)=O (some centres unmarked) [Example 50, iBoc--M(O)--LFK] (Isobutyloxycarbonyl-[Met(O)]LFK-NH2)
Binding EC50 (neutrophils [3]): ? --

CSCC[C@H](NC=O)C(=O)N[C@@H](CC(C)C)C(=O)N[C@@H](Cc1ccccc1)C(=O)O [Example 59, N-formyl-methionyl-leucyl-phenylalanine, reference compound]
EC50 [2]: 0.007 µM

CCCCNC(=O)N[C@@H](CCSC)C(=O)N[C@@H](CC(C)C)C(=O)N[C@@H](Cc1ccccc1)C(=O)O [Example 65, N-butylurea-MLF]
EC50 ([2]; class symbol): < 30 µM

CCCCC(=O)N[C@@H](CCSC)C(=O)N[C@@H](CC(C)C)C(=O)N[C@@H](Cc1ccccc1)C(=O)O [Example 79, n-butyl-amidyl-MLF]
EC50 ([2]; class symbol): > 30 µM
IC50 [1, 6]: 9.6 µM

CSCC[C@H](NC(N)=O)C(=O)N[C@@H](CC(C)C)C(=O)N[C@@H](Cc1ccccc1)C(=O)O [Example 98, N-hydrourea-MLF]
EC50 [2]: 0.62 µM

Isopropylurea-FLFLF--Lys--Lys--SHNH [Example 18]
EC50 (neutrophils [4]): > 30 µM
IC50 (neutrophils [5]): 29.5 µM
EC50 (neutrophils [3]): 15.7 µM

Leu--Ala--SHNH--Boc [Example 8]
EC50 (neutrophils [4]): > 30 µM
EC50 (neutrophils [3]): > 100 µM

N(N-isopropylurea-FLFLF-Propanediamine-SPNH [Example 94]
EC50 (neutrophils [4]): > 30 µM
EC50 ([2]; class symbol): > 30 µM
IC50 (neutrophils [5]): 5 µM
EC50 (neutrophils [3]): 0.42 µM

iBoc--MLF--S--SPNH [Example 39]
EC50 (neutrophils [4]): > 30 µM
IC50 (neutrophils [5]): 3 to 3.5 µM
IC50 [1, 6]: > 30 µM
EC50 (neutrophils [3]): 0.6 to 22 µM

iBoc--MLF--SPNH [Example 37]
EC50 (neutrophils [4]): > 30 µM
IC50 (neutrophils [5]): 10 to 30 µM
IC50 [1, 6]: > 30 µM
EC50 (neutrophils [3]): 0.15 to 5 µM
